What was measured:
[1] = system: rabbit corneal endothelial cells; assay: Adhesion of cultured corneal endothelial cells to culture plate (Example 6); assay type: cell-based; conditions: 3 hours after seeding
Description: In this Example, rabbit corneal endothelial cells prepared in the same manner as in Example 4 were used. In this Example, moreover, test substances and control substance prepared in the same manner as in Example 4 were used. The collected rabbit corneal endothelial cells were diluted, and a culture medium (about 4 ml, DMEM (Invitrogen, Cat. #12320-032), 10% FBS, 2 ng/mL bFGF (Invitrogen, Cat. #13256-029) and 1% penicillin/streptomycin (Invitrogen, Cat. #15070-063)) was added to the cells. Then, each medicament was added to the culture medium to final concentrations of 0.09, 0.32, 0.95, 3.16 and 9.47 μM compound (I), 10 μM Y-27632 and 10 μM Fasudil. As a control, DMSO was added to a final concentration of 0.04%. These cells were seeded in a 96 well plate (Corning Incorporated, Cat. #3595) at 1000 cells/well. After 3 hours from the seeding, suspended cells were removed, and adhered cells were counted by CellTiter-Glo (registered trade mark) Luminescent Cell Viability Assay (promega Cat. #G7572).

[2] = system: rabbit corneal endothelial cells; assay: Wound healing model of cultured corneal endothelial cells (Example 5); assay type: cell-based
Description: In this Example, rabbit corneal endothelial cells prepared in the same manner as in Example 4 were used. In this Example, moreover, test substances and control substance prepared in the same manner as in Example 4 were used. Collected rabbit corneal endothelial cells were diluted with a culture medium (about 4 ml, DMEM (Invitrogen, Cat. #12320-032), 10% FBS, 2 ng/mL bFGF (Invitrogen, Cat. #13256-029) and 1% penicillin/streptomycin (Invitrogen, Cat. #15070-063)), and seeded at a division ratio of 1:4 by 2 ml per well in a 6 well plate (Corning Incorporated, Cat. #3516). The cells were incubated to confluent under conditions of 37° C. and 5% CO2. Wound was created in the confluent cells using 1000 μL chip (Molecular BioProducts, 2279). Then, each medicament was added to the culture medium to a final concentration of 0.09, 0.32, 0.95, 3.16 and 9.47 μM compound (I), 10 μM Y-27632 and 10 μM Fasudil. As a control, DMSO was added to a final concentration of 0.04%. At 6 hours, 12 hours and 24 hours after addition of each medicament, the width of the wound was photographed over time, and the width of the wound was evaluated by image analysis.

[3] = system: corneal endothelial wound; assay: Rabbit corneal endothelial wound model, topical instillation (Example 1); assay type: in vivo; conditions: for area of the unrepaired wound site (corneal endothelium wound area): 6 times a day, 46 hours after wound creation
Description: In this Example, 0.95 mM (0.03 w/v%) compound (I) instillation and 0.32 mM (0.01 w/v%) compound (I) instillation obtained by diluting the above instillation with the above-mentioned vehicle were used.
As a positive control substances, Y-27632 dihydrochloride (Wako Pure Chemical Industries, Co., Ltd., Cat. #253-00513) and fasudil hydrochloride hydrate injection (Eril (registered trade mark) drip intravenous injection, Asahi Kasei Pharma) were purchased, and Y-27632 and Fasudil were each adjusted to 10 mM with phosphate-buffered saline (PBS, Invitrogen, Cat. #14190). In addition, PBS was used as a negative control substance.
Male Japanese white rabbits (body weight 2.5-3.0 kg, 21 rabbits) were purchased from Biotek Co., Ltd. and used. They are kept in individual cages at 23±3° C. temperature, at 55±10% humidity and 12 hours artificial light cycle (lighting on; 8:00 a.m., lighting off; 8:00 p.m.). One hundred grams of solid food (Labo R stock; Nosan Corp.) are provided daily to each animal. Water is supplied by automatic watering apparatus.
3. Excision of Nictitating Membrane of Animal Before starting the test, the nictitating membrane of both eyes of the animal was excised. To be specific, each animal was set in a positioner, and the ocular surface was topically anesthetized by instillation of a topical anesthesia (Benoxil instillation 0.4%, Santen Pharmaceutical Co., Ltd.). Then, the root position of the nictitating membrane was pressed with a clamp for 30 sec, and compressing mark was cut with scissors. After excision of the nictitating membrane, the antibiotic ointment (tarivid eye ointment, Santen Pharmaceutical Co., Ltd.) was instilled to prevent infection. After 4 days from the excision of the nictitating membrane, animals confirmed to have no abnormality in the external eye including the excised site were used.
The corneal thickness of the right eye of each animal was measured with an ultrasonic pachymeter (manufactured by DGH Technologies Inc., DGH-500), and the animals were divided into 4 groups such that the corneal thickness of each group was equal. The animals used for each group were as follows. • 10 mM Y-27632 group=5 eyes • 0.32 mM compound (I) group=5 eyes • 0.95 mM compound (I) group=6 eyes • 10 mM Fasudil group=5 eyes • PBS group=21 eyes (left eye)
The animals were sytemically anesthetized by intramuscular administration of Ketalar muscular injection ([…], DAIICHI SANKYO COMPANY, LIMITED., 0.6 ml) and Celactal 2% Injection (Bayer, Ltd., 0.25 ml). Then, Benoxil instillation 0.4% (Santen Pharmaceutical Co., Ltd., one drop) was instilled and the eye was opened using a lid speculum.
A 7-mm diameter stainless dowel that had been cooled in liquid nitrogen was placed on the central cornea of both eyes of 21 animals for 15 sec. to produce an ice ball in the anterior chamber and dissociate corneal endothelial cells, whereby a corneal endothelial wound was produced.
For topical instillation, after wound creation, compound (I) instillation, Y-27632 instillation or Fasudil instillation was instilled to the right eye, and PBS was instilled to the left eye 6 times a day (4 times on the day of wound production) at 50 μL per instillation. Administration interval in one day was 2 hours. […]

[4] = system: corneal endothelial loss model; assay: Rabbit corneal endothelial loss model, high concentration instillation (Example 2); assay type: in vivo; conditions: 0.05 w/v % (1.58 mM) instillation, 6 times a day, 2 days
[5] = system: cultured corneal endothelial cells; conditions: cited from earlier work
corneal endothelium = conditions: instillation of 10 mM; cited from earlier work
[6] = system: cultured monkey corneal endothelial cells; conditions: in vitro; cited from earlier work

Structure (SMILES) | number of adherent cells ([1]; 0.32 μM) | concentration at which the number of adherent cells reached plateau [1] | number of adherent cells ([1]; all addition groups (0.09-9.47 μM)) | wound healing effect ([2]; 0.95 μM, student's t-test) | wound width ([2]; 9.47 μM, versus control) | wound width ([2]; 0.09-3.16 μM, 24 hours after addition, Dunnett's test) | concentration showing a wound healing effect ([2]; in vitro wound healing model, Example 5) [µM] | area of the unrepaired wound site (corneal endothelium wound area) ([3]; 0.32 mM instillation) [mm^2] | area of the unrepaired wound site (corneal endothelium wound area) ([3]; 0.95 mM instillation) [mm^2] | wound area compared to the PBS instillation group ([3]; 0.95 mM instillation, Dunnett's test) | effect in rabbit corneal endothelial loss model [4] | cell adhesion [5] | area of the unrepaired wound site (corneal endothelium wound area) ([3]; 10 mM instillation) [mm^2] | wound healing of corneal endothelium (corneal endothelium) | apoptosis [6] | cell adhesion [6] | cell cycle [6]
C[C@@H](N)c1ccc(C(=O)Nc2ccnc3[nH]ccc23)cc1.Cl [compound (I), (R)-(+)-N-(1H-pyrrolo[2,3-b]pyridin-4-yl)-4-(1-aminoethyl)benzamide monohydrochloride] | almost the same level as 10 μM Y-27632 | not less than 0.32 μM | increased the number of adherent cells | showed a wound healing effect from the early stages of the addition | no statistically significant difference from the control group | significantly decreased | 0.09 to 3.16 | 1.1 | 0.4 | statistically significant decrease in the wound area | effect can be confirmed |  |  |  |  |  | 
C[C@@H](N)[C@H]1CC[C@H](C(=O)Nc2ccncc2)CC1 [Y-27632, reference compound] |  |  |  |  |  |  |  |  |  |  |  | promoting cell adhesion | 1.1 | promotes wound healing of corneal endothelium | suppression of apoptosis | promotion of cell adhesion | promotion of cell cycle
